# In US20080279843A1, “Method For Improving Insulin Sensitivity By Administering an Inhibitor of Antitrypsin” (Essential SkinCare, LLC, priority 2003, published 2008):
# What was measured:
# C57/Black female mice = experiment: Glucose tolerance test with insulin and commercial AT (Example 2); type: in vivo
# Protocol: C57/Black female mice weighing 22-23 g were fasted for 16 hours. Four animals were used for each of four treatment groups. The first and fourth treatment group received intraperitoneal injections of 1500 μg commercially obtained AT. Exactly 23 hours and 45 minutes after the AT was administered to the first and fourth treatment group, the animals in the first and second treatment group received 0.5 I.U. of insulin. Exactly 15 minutes after the insulin was administered (i.e., 24 hours after the AT was administered to the first treatment group), glucose (3 g/kg) was injected intraperitoneally into the first, second and third treatment groups. Blood samples were taken from the eyes (canthus), and glucose concentrations in whole blood samples were immediately measured with the fast Glucose C test (Wako Chemicals USA Inc., Richmond, Va., USA). The data presented are the mean ±S.D. of four determinations, one with each animal.
# [1] = test system: differentiated rat L6 muscle cells; experiment: Synthesis of [14C]glycogen from radiolabeled glucose; type: cell-based
# Protocol: Rat L6 skeletal muscle cells were obtained from the American Type Culture Collection, Rockville, Md. L6 cell monolayers were induced to differentiate in Minimal Essential Medium (MEM) containing 2% (v/v) fetal bovine serum (FBS) and 1% (v/v) antibiotic/antimycotic solution. The cells were fed fresh medium every 48 hours. Myoblast differentiation, which occurred by about the 7-9th day, was monitored by phase contrast microscopy. Differentiated L6 cells are widely used models for studying glucose metabolism in the skeletal muscle. The present study was focused on these cells, because skeletal muscle accounts for about 70-80% of total blood glucose metabolism in the human body.
# To examine cellular glucose uptake and metabolism, differentiated (attached) cells in 12-well plates were incubated at 37° C. in a CO2 incubator (95% air: 5% CO2) with D-[^14C]glucose (1 μCi/mL) in 2% FBS-containing medium containing 5.5 mM unlabeled glucose for 0.5-6 hours as indicated at the corresponding Figures. At the termination of incubation, the medium was removed. An aliquot of the medium was taken to determine the loss of [^14C]glucose from the medium which corresponds to its uptake by cells. Cells were washed twice with 3 ml medium to remove traces of medium containing unincorporated radioactivity. Ice-cold 99.8% methanol/0.2% water (v/v) mixture (1 ml) was then added to the monolayers and cells were extracted for 2 hours at −20° C. […] The methanol phase (1 ml) and a following 1 ml methanol wash were added to 2 ml chloroform followed by the addition of 3 ml water. Of the resulting two phases (separation was facilitated by brief centrifugation), the lower phase contained the total radiolabeled lipids, while the upper phase contained [^14C]glucose.
# Aliquots of the upper and lower phases were taken to scintillation vials to determine the amounts of radiolabeled glucose and total lipids, respectively, by liquid scintillation counting. Precipitated [^14C]glycogen was suspended in 0.75 ml of 1 M NaOH and transferred to scintillation vial. This procedure was repeated with another 0.75 ml aliquot of NaOH. To neutralize the suspension, […] (approximately 150 μL) was then added to the vials, followed by the addition of 8.5 ml Ecolume (scintillation fluid). While the 1 M NaOH suspension contained some particulate material (mostly protein which was not labeled with radiolabeled glucose), no precipitate remained in the suspension after addition of Ecolume. […] No additional radioactivity could be removed from the well by neutralized 30% KOH.
# In some experiments, a published procedure [Huang, D., Cheung, A. T., Parsons, J. T. and Bryer-Ash, M. “Focal adhesion kinase (FAK) regulates insulin-stimulated glycogen synthesis in hepatocytes.” J. Biol. Chem. 277, 18151-18160, (2002)] was used to determine glucose incorporation into glycogen in a method similar to the one described above. After incubations with [^14C] glucose, cells were solubilized with 20% KOH for 2 hours. Lysates were extracted with 8% […], neutralized with 2.0 M HCl, then boiled for 5 min. The total glycogen was precipitated by the addition of 80% ethanol (final concentration) for 2 hours at −20° C. followed by centrifugation at 1100×g for 10 min. This step was repeated.
# After the pellets had been re-dissolved in distilled water, the samples were precipitated again using the same method described above, and yielded essentially the same results. In subsequent experiments the initial methanol precipitation method described above was used because it allowed for analysis of cellular glucose, glycogen and lipids from the same sample.
# Three groups of differentiated L6 cells, incubated in 12-well plates in 2% FBS-containing medium, were treated as follows. A first control group ([…]) was untreated. A second group (▴) was treated with 500 nM insulin for 30 min. A third group (▪) was treated first with 0.4 mg/ml of AT followed by an addition of 500 nM insulin for 30 min. […]
substance,measurement,setting,value
α1-antitrypsin [AT],Effect of AT on the action of insulin on blood glucose level,"C57/Black female mice; FIG. 2, AT 1.5 mg/mouse i.p. 24 h prior, insulin 0.5 I.U., glucose 3 g/kg i.p.",blocked the action of insulin
same,Effect of AT alone on the blood glucose level,"C57/Black female mice; FIG. 2 insert, AT 1.5 mg/mouse i.p., no insulin, no glucose (fourth treatment group)",no significant effect on the blood glucose level
same,"Effect of AT on the insulin effect on [14C]glycogen, short incubation","[1]; 0.4 mg/ml AT, 500 nM insulin, 30 min incubation",no such inhibitory effects
same,Effect of AT on insulin-stimulated synthesis of [14C]glycogen,"[1]; FIG. 3B, 0.4 mg/ml purified AT, incubations for 2 hrs or 6 hours",inhibited both insulin effects
same,Effect of AT on cellular level of [14C]glycogen in the absence of insulin,"[1]; FIG. 4B, 0.05 to 0.4 mg/ml AT, 5 hours",did not significantly affect
same,Decrease of synthesis of cellular [14C]glycogen by AT in the presence of insulin,"[1]; FIG. 4B, 0.2 to 0.4 mg/ml AT, 500 nM insulin, 5 hours",at least 50%
same,Inhibition by AT of the insulin effect on [14C]glycogen synthesis,"[1]; FIG. 5, 0.4 mg/ml AT, 500 nM insulin, 5 hours",about 70%
